From the NIST ThermoML archive (doi:10.1021/je060475r)

Test: xn = mol fraction of the nth substance listed
Conditions: 101 kPa, Liquid

O=CN1CCOCC1 [N-formylmorpholine] + Cc1ccccc1
Conditions	mass density [kg/m3]	viscosity [mPa·s]
298.15 K, x2 = 0	1146.06	7.955
298.15 K, x2 = 0.0997	1118.85	6.045
298.15 K, x2 = 0.1857	1095.98	4.343
298.15 K, x2 = 0.2987	1064.62	3.106
298.15 K, x2 = 0.3979	1036.62	2.334
298.15 K, x2 = 0.4996	1007.87	1.769
298.15 K, x2 = 0.5993	979.41	1.376
298.15 K, x2 = 0.701	949.94	1.064
298.15 K, x2 = 0.8004	920.72	0.846
298.15 K, x2 = 0.9	891.62	0.681
303.15 K, x2 = 0	1141.7	6.877
303.15 K, x2 = 0.0997	1114.45	5.223
303.15 K, x2 = 0.1857	1091.57	3.824
303.15 K, x2 = 0.2987	1060.17	2.771
303.15 K, x2 = 0.3979	1032.11	2.116
303.15 K, x2 = 0.4996	1003.25	1.614
303.15 K, x2 = 0.5993	974.76	1.261
303.15 K, x2 = 0.701	945.23	0.994
303.15 K, x2 = 0.8004	916.11	0.79
303.15 K, x2 = 0.9	887	0.636
313.15 K, x2 = 0	1132.96	5.214
313.15 K, x2 = 0.0997	1105.62	4.037
313.15 K, x2 = 0.1857	1082.68	3.035
313.15 K, x2 = 0.2987	1051.22	2.248
313.15 K, x2 = 0.3979	1022.87	1.754
313.15 K, x2 = 0.4996	993.89	1.323
313.15 K, x2 = 0.5993	965.36	1.076
313.15 K, x2 = 0.701	935.9	0.854
313.15 K, x2 = 0.8004	906.8	0.69
313.15 K, x2 = 0.9	877.53	0.569
323.15 K, x2 = 0	1124.33	4.08
323.15 K, x2 = 0.0997	1096.88	3.219
323.15 K, x2 = 0.1857	1073.89	2.475
323.15 K, x2 = 0.2987	1042.33	1.864
323.15 K, x2 = 0.3979	1013.75	1.471
323.15 K, x2 = 0.4996	984.5	1.13
323.15 K, x2 = 0.5993	955.91	0.929
323.15 K, x2 = 0.701	926.58	0.747
323.15 K, x2 = 0.8004	897.51	0.613
323.15 K, x2 = 0.9	868.21	0.508
333.15 K, x2 = 0	1115.63	3.284
333.15 K, x2 = 0.0997	1088.08	2.622
333.15 K, x2 = 0.1857	1065	2.057
333.15 K, x2 = 0.2987	1033.38	1.576
333.15 K, x2 = 0.3979	1004.52	1.259
333.15 K, x2 = 0.4996	975.06	0.979
333.15 K, x2 = 0.5993	946.52	0.813
333.15 K, x2 = 0.701	917.23	0.66
333.15 K, x2 = 0.8004	888.11	0.544
333.15 K, x2 = 0.9	858.77	0.453
343.15 K, x2 = 0	1107.96	2.707
343.15 K, x2 = 0.0997	1080.32	2.189
343.15 K, x2 = 0.1857	1057.15	1.748
343.15 K, x2 = 0.2987	1025.32	1.353
343.15 K, x2 = 0.3979	996.41	1.096
343.15 K, x2 = 0.4996	966.84	0.888
343.15 K, x2 = 0.5993	938.07	0.72
343.15 K, x2 = 0.701	908.7	0.59
343.15 K, x2 = 0.8004	879.44	0.49
343.15 K, x2 = 0.9	850.05	0.412
353.15 K, x2 = 0	1098.76	2.274
353.15 K, x2 = 0.0997	1070.98	1.804
353.15 K, x2 = 0.1857	1047.73	1.505
353.15 K, x2 = 0.2987	1015.94	1.179
353.15 K, x2 = 0.3979	986.63	0.96
353.15 K, x2 = 0.4996	957.13	0.791
353.15 K, x2 = 0.5993	928.16	0.644
353.15 K, x2 = 0.701	898.81	0.531
353.15 K, x2 = 0.8004	869.48	0.444
353.15 K, x2 = 0.9	839.94	0.377
